Read-outs that look alike come from different tables or passages of the source.
Legend:
[1] = biological target: human growth hormone secretagogue receptor (hGHS-R1a) (Homo sapiens, UniProt Q92847); assay: Competitive radioligand binding assay (ghrelin receptor), standard method A
human plasma = assay: Plasma protein binding, human plasma (equilibrium dialysis); type: in vitro ADME
Procedure, shortened: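 Human plasma incubated with test article at several concentrations for 60 min at 37° C. Bound and unbound fractions separated by equilibrium dialysis; unbound concentration quantified by LC-MS or LC-MS-MS.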

rat plasma = assay: Plasma protein binding, rat plasma; type: in vitro ADME
CYP1A2 = biological target: T1, CYP1A2 (Homo sapiens, UniProt P05177); assay: Cytochrome P450 inhibition, CYP1A2; type: in vitro ADME; conditions: read-out: IC50 1A2
T1 construct: purchased BD Gentest, Becton-Dickinson (Supersomes); host or cells: insect cells
T1 sequence (P05177 1-516): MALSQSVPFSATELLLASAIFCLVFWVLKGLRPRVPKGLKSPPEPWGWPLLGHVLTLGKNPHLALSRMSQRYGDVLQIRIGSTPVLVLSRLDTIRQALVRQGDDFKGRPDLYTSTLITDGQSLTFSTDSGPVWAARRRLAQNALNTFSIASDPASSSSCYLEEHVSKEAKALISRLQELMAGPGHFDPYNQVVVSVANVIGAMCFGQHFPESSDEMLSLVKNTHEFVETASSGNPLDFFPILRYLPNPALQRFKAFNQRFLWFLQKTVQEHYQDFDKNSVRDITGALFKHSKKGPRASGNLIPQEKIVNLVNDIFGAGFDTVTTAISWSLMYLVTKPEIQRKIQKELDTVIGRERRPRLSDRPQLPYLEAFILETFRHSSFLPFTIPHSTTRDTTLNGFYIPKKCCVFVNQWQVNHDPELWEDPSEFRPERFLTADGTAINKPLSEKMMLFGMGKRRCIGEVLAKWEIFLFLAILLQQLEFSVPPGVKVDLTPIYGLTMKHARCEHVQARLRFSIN
Source text: (§1) K. Assay for Cytochrome P450 Inhibition
(§2) Cytochrome P450 enzymes are implicated in the phase I metabolism of drugs. The majority of drug-drug interactions are metabolism-based and, moreover, these interactions typically involve inhibition of cytochrome P450s. Six CYP450 enzymes (CYP1A2, CYP2C8, CYP2C9, CYP2C19, CYP2D6 and CYP3A4) appear to be commonly responsible for the metabolism of most drugs and the associated drug-drug interactions. Assays to determine the binding of compounds of the invention to the various metabolically important isoforms of cytochrome P450 metabolizing enzymes are commercially available, for example NoAb BioDiscoveries (Mississaugua, ON, Canada) and Absorption Systems (Exton, Pa., USA). As well, a number of appropriate methods have been described or reviewed in the literature. (White, R. E. Ann. Rev. Pharmacol. Toxicol. 2000, 40, 133-157; Li, A. P. Drug. Disc. Today 2001, 6, 357-366; Turpeinen, M.; Korhonen, L. E. Tolonen, A.; et al. Eur. J. Pharm. Sci, 2006, 29, 130-138.)
(§3) The key aspects of the experimental method were as follows: • 1. […] Assays monitored, via fluorescence detection, the formation of a fluorescent metabolite following incubation of the microsomes with a specific CYP substrate. • 3. Compounds of the present invention were tested in duplicate samples at eight test concentrations using 3-fold serial dilutions (concentration range of 0.0457 to 100 μM). • 4. For each CYP-450 enzyme, a specific inhibitor was tested in duplicate at eight concentrations as a positive control. • 5. The concentration of the inhibitor or test compound that inhibited metabolite formation by 50% (IC50) was calculated by non-linear regression analysis of the % inhibition vs. log concentration (M) curve.

CYP2C8 = biological target: T2, CYP2C8 (Homo sapiens, UniProt P10632); assay: Cytochrome P450 inhibition, CYP2C8; type: in vitro ADME; conditions: read-out: IC50 2C8
T2 construct: purchased BD Gentest, Becton-Dickinson (Supersomes); host or cells: insect cells
T2 sequence (P10632 1-490): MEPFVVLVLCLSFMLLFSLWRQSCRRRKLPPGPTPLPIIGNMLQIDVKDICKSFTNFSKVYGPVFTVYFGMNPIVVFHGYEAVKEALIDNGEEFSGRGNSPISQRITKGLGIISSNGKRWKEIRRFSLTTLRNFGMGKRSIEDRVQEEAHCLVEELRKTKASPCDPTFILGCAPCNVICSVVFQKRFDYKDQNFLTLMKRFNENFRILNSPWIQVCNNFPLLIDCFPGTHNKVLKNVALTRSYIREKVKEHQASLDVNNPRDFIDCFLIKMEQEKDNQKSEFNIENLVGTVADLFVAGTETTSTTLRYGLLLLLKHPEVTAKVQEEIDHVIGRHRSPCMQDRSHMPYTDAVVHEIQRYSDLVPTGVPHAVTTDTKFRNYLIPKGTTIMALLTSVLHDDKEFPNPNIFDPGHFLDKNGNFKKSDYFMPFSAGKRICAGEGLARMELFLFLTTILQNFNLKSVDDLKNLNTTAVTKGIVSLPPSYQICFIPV
Source text: as §1, §2, §3

CYP2C9 = biological target: T3, CYP2C9 (Homo sapiens, UniProt P11712); assay: Cytochrome P450 inhibition, CYP2C9; type: in vitro ADME; conditions: read-out: IC50 2C9
T3 construct: purchased BD Gentest, Becton-Dickinson (Supersomes); host or cells: insect cells
T3 sequence (P11712 whole entry): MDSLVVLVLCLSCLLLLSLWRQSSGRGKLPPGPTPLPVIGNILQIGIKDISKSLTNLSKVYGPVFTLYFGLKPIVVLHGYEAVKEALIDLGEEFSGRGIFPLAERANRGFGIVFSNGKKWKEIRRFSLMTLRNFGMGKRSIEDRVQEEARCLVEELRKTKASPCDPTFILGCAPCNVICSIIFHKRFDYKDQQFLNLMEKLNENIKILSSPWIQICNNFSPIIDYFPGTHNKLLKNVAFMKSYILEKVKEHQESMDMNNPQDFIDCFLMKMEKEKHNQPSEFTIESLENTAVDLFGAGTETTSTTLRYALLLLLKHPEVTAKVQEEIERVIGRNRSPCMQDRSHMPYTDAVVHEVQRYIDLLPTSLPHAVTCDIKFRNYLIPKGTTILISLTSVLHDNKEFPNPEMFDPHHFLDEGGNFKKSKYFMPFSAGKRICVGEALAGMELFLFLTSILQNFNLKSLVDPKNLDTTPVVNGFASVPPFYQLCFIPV
Source text: as §1, §2, §3

CYP2C19 = biological target: T4, CYP2C19 (Homo sapiens, UniProt P33261); assay: Cytochrome P450 inhibition, CYP2C19; type: in vitro ADME; conditions: read-out: IC50 2C19
T4 construct: purchased BD Gentest, Becton-Dickinson (Supersomes); host or cells: insect cells
T4 sequence (P33261 whole entry): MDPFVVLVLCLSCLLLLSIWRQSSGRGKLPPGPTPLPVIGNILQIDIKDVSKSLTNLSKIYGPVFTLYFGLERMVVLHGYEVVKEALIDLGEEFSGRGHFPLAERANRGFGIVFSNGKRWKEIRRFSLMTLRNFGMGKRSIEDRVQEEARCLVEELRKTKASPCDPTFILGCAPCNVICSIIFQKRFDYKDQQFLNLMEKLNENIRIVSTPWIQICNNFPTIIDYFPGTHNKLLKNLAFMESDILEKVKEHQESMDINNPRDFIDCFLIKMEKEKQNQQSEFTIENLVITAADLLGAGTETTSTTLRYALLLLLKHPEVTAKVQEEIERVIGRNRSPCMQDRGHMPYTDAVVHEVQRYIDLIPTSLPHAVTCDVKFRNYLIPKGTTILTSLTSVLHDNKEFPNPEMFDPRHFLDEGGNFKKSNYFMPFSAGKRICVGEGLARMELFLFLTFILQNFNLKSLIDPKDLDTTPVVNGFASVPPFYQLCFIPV
Source text: as §1, §2, §3

CYP2D6 = biological target: T5, CYP2D6 (Homo sapiens, UniProt P10635); assay: Cytochrome P450 inhibition, CYP2D6; type: in vitro ADME; conditions: read-out: IC50 2D6
T5 construct: purchased BD Gentest, Becton-Dickinson (Supersomes); host or cells: insect cells
T5 sequence (P10635 whole entry): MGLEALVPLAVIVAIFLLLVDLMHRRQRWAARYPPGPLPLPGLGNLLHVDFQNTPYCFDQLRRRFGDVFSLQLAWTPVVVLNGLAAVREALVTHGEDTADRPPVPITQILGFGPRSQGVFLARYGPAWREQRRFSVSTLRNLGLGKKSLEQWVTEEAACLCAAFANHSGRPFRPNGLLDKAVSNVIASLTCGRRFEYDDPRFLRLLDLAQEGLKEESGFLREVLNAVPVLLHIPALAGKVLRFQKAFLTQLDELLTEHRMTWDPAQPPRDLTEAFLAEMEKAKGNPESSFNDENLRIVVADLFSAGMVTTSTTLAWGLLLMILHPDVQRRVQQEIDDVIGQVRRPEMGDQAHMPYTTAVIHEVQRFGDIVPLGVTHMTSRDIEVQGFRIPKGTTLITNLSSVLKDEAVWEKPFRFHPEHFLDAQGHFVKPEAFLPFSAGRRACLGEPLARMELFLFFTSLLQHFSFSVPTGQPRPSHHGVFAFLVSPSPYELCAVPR
Source text: as §1, §2, §3

[2] = binding activity at the human ghrelin receptor, standard method A

Sequence of human growth hormone secretagogue receptor (hGHS-R1a) (Q92847 whole entry): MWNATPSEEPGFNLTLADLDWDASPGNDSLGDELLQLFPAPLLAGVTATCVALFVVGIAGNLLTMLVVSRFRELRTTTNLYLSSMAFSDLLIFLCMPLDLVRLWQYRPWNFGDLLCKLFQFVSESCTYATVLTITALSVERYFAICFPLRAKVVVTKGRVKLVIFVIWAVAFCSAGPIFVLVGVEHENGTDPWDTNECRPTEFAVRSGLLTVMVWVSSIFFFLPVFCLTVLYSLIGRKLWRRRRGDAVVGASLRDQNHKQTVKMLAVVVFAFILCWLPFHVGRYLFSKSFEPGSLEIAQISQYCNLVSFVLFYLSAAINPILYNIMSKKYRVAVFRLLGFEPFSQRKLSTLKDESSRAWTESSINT

Row | Structure (SMILES) | Ki [1, 2] | Human Plasma Protein Binding (%) (human plasma; test concentration 1 μg/mL) | Human Plasma Protein Binding (%) (human plasma; test concentration 5 μg/mL) | Rat Plasma Protein Binding (%) (rat plasma; test concentration 1 μg/mL) | Rat Plasma Protein Binding (%) (rat plasma; test concentration 5 μg/mL) | IC50 (CYP1A2) | IC50 (CYP2C8) | IC50 (CYP2C9) | IC50 (CYP2C19) | IC50 (CYP2D6) | Human Plasma Protein Binding (%) (human plasma; test concentration 3 μg/mL) | Rat Plasma Protein Binding (%) (rat plasma; test concentration 3 μg/mL) | Ki [1]
1 | CC(C)CC1NC(=O)C(C)N(C)C(=O)C(C2CC2)NCC(C)OC2CCCCC2CCCNC1=O (mixture of isomers) [Compound 825] | ≤ 0.01 µM | 83% | 70% | 96.6% | 73% | > 100 µM | > 100 µM | > 100 µM | > 100 µM | > 100 µM |  |  | 
2 | CC1CNC(C2CC2)C(=O)N(C)C(C)C(=O)NC(Cc2ccc(O)cc2)C(=O)NCCCC2CCCCC2O1 (mixture of isomers) [Compound 826] | ≤ 0.1 µM |  |  |  |  | > 100 µM | > 100 µM | > 100 µM | > 100 µM | > 100 µM | 94.3% | 97.2% | 
3 | CC(C)CC1NC(=O)C(C)N(C)C(=O)C(C2CCCCC2)NCC(C)OC2CCCCC2CCCNC1=O (mixture of isomers) [Compound 828] | ≤ 0.001 µM |  |  |  |  | > 100 µM | > 100 µM | > 100 µM | > 100 µM | > 100 µM | 76.8% |  | 
4 | C[C@@H]1C(=O)N[C@H](Cc2ccc(O)cc2)C(=O)NCCCc2cccc3c2O[C@H](CC3)CN[C@@H](C2CC2)C(=O)N1C [Compound 803] | ≤ 0.1 µM | 97.8% |  | 99.1% |  | > 100 µM | 54.6 µM | > 100 µM | > 100 µM | > 100 µM |  |  | 
5 | CC(C)C[C@H]1NC(=O)[C@@H](C)N(C)C(=O)[C@H](C2CC2)NC[C@@H](C)Oc2ccccc2CC[C@H](C)NC1=O [Compound 807] |  |  |  |  |  | > 100 µM | > 100 µM | > 100 µM | > 100 µM | > 100 µM |  |  | ≤ 0.01 µM
6 | C[C@@H]1C(=O)N[C@H](Cc2ccc(O)cc2)C(=O)NCCCc2ccc(F)cc2OCCN[C@@H](C2CC2)C(=O)N1C [Compound 809] | ≤ 0.1 µM |  |  |  |  | > 100 µM | > 100 µM | > 100 µM | > 100 µM | > 100 µM | 88.4% | 92.8% | 
7 | CC(C)C[C@H]1NC(=O)[C@@H](C)N(C)C(=O)[C@H](C2CC2)NCCOc2cc(F)ccc2CCCNC1=O [Compound 810] | ≤ 0.1 µM |  |  |  |  | 69 µM | > 100 µM | > 100 µM | > 100 µM | > 100 µM | 78.9% |  | 
8 | CC1NC(C2CC2)C(=O)N(C)C(C)C(=O)NC(Cc2ccc(O)cc2)C(=O)NCCCc2ccccc2OC1C (stereo not shown) [Compound 820] | ≤ 0.1 µM |  |  |  |  | > 100 µM | > 100 µM | > 100 µM | > 100 µM | > 100 µM | 99.0% | 98.8% | 
9 | CC(C)C[C@H]1NC(=O)[C@@H](C)N(C)C(=O)[C@H](C2CC2)NCCOc2cc(F)ccc2CC[C@H](C)NC1=O [Compound 822] | ≤ 0.1 µM |  |  |  |  | > 100 µM | > 100 µM | > 100 µM | > 100 µM | > 100 µM | 93.0% | 99.1% | 
